Here are results for two compounds from patent publication US20250360164A1, “METHOD FOR REDUCING THE INCIDENCE OF PECTORAL MYOPATHY IN POULTRY FEED” (CAN TECHNOLOGIES, INC., priority 2017, published 2025).

For one series, the system named is wooden breast. The settings on record: previous state-of-the-art, poster 450 P, 2015; cited from earlier work.
For series [1] the following is noted: nitrate dosage up to at least 400 mg/kg body weight, starter and grower phases. Here is the method: The amount of one or more nitrates, one or more nitrites, or a mixture thereof fed to the poultry in the feed compositions and/or methods described herein can also be expressed in mg of nitrates and/or nitrites per kg body weight of the poultry. In some embodiments, the nitrate/nitrite amount in the feed composition is less than 500 mg/kg, less than 450 mg/kg, less than 400 mg/kg, or less than 300 mg/kg. In some embodiments, the nitrate/nitrate amount in the feed composition is in the range of 10 to 500 mg/kg, 10 to 400 mg/kg; 10 to 300 mg/kg; 25 to 400 mg/kg; 25 to 200 mg/kg; 50 to 400 mg/kg; 50 to 150 mg/kg; or 100 to 400 mg/kg.

Regarding `N=C(N)NCCC[C@H](N)C(=O)O` [arginine], in the series on wooden breast, the “reduction of wooden breast” value is “inefficient in providing effective reduction”.
In the case of `O=[N+]([O-])[O-].O=[N+]([O-])[O-].[Ca+2]` [calcium nitrate], in series [1], the effect on growth result is reported as “does not negatively affect growth” and the nitrate poisoning result is given as “does not cause nitrate poisoning”.
